According to patent US20080044419A1, “Treatment of T Cell Mediated Diseases by Inhibition of Fgfr3” (Fibron Ltd., priority 2003, published 2008):

Experiments:
[1] = system: Collagen Induced Arthritis (CIA) mice; assay: Murine Collagen Induced Arthritis (CIA) model, paw edema; assay type: in vivo; settings: i.p. daily injections
Protocol: Murine collagen-induced arthritis (CIA) is considered a useful model for studying human RA since the two diseases share numerous pathologic, immunological, and genetic features. The CIA model in mice results in a symmetric polyarthritis in which bone and cartilage erosion typically occur, 2-4 weeks after immunization with […] type II collagen on complete Freud's adjuvant (CFA).
Male DBA/l mice (8-10 weeks old) were subject to an intradermal injection at the base of the tail with 200 μg type II collagen purified from bovine articular cartilage emulsified in CFA. The mice received a booster injection of 200 μg type II collagen emulsified in CFA three weeks after the first dose.
The mice were checked daily and each animal with edema in one or more limbs was randomly assigned to one of several groups for further treatment. The thickness of each affected hind paw was measured with microcalipers. The results are expressed as a direct measure of paw width in millimeters.
Each mouse was injected intraperitoneally on the day following disease onset (day 1) with 100 ug anti-FGFR3-ScFv or anti-FGFR3 Fab′ or 20 mg/kg of a FGFR3 specific tyrosine kinase (TK) inhibitor (SU5402, Calbiochem, La Jolla, Calif.), followed by daily injections with 300 μg anti-FGFR3 ScFv or anti-FGFR3 Fab′ or with 20 mg/kg SU5402.

[2] = system: cutaneous delayed type hypersensitivity reactions in mice; assay: Delayed type hypersensitivity (DTH) assay, oxazolone, ear thickness; assay type: in vivo; settings: treated mice, oxazolone challenge, measured after 24 hours
Protocol: The mouse model for cutaneous delayed type hypersensitivity reactions was used to investigate the effects of FGFR3 inhibitors on induced skin inflammation. Oxazolone solutions (2% and 0.5%) were prepared by dissolving 200 and 50 mg, respectively, of oxazolone in 8 ml of acetone and 2 ml of olive oil. Mice were challenged with oxazolone by topical application onto the abdomen of each mouse (100 μl of 2% oxazolone) followed by 10 μl of 0.5% oxazolone on the right ear after 6 days. Differences between right and left ear thickness, indicating DTH development, were measured after 24 hours using a microcaliper.

## Cc1c[nH]c(/C=C2\C(=O)Nc3ccccc32)c1CCC(=O)O [SU5402]
[1]
  reduction in paw edema: significant reduction
[2]
  DTH reaction: induction of edema (ear thickness difference): no induction of edema
